According to patent publication US20100173983A1, “METHOD FOR INDUCING AUTOPHAGY” (priority 2007, published 2010):

Experiments:
caspase 3 [1] = experiment: Caspase-Glo 3/7 assay in R182 cells; format: cell-based, Human; settings: R182 ovarian cancer explants; dose response and duration of exposure (5 μg/ml, 0-25 hr)
Method: FIG. 2. Comparative induction of caspase 3 in R182 ovarian cancer explants by Cpd 1 and dehydroequol using either dose response (A) or duration of exposure (B). Caspase 3 activity was assessed using the Caspase-Glo 3/7 assays.
(§1) For caspase activity assays, 10 μg of protein in 50 μL total volume was mixed with 50 μL of equilibrated Caspase-Glo 3/7, 8, or 9 reagents (Promega). After incubating at room temperature for 1 hour, luminescence was measured using TD 20/20 Luminometer (Turner Designs, Sunnyvale, Calif.). Blank values were subtracted and fold-increase in activity was calculated based on activity measured from untreated cells. Each sample was measured in triplicate.

[2] = system: CP70 (cell line), R179, R182, R585 (primary ovarian cancer explants); experiment: Cell viability, CellTiter 96 Aqueous One Solution Cell Proliferation Assay, ovarian cancer cells; format: cell-based, Human; settings: concentrations up to 10 μg/ml, 24 hr exposure
Method: FIG. 1. Comparative cytotoxicity of dehydroequol and Compound I as described herein (Cpd 1) against normal and ovarian cancer cells: CP70 (cell line), R179, R182, R585 (primary ovarian cancer explants) and OSE (normal ovarian surface epithelial cells). […] Both compounds were tested at concentrations up to 10 μg/ml and exposed to cells for 24 hr.
Human EOC cell lines A2780, CP70, and OSE were propagated in RPMI plus 10% fetal bovine serum (FBS) (Gemini Bio-Products, Woodland, Calif.) at 37° C. in a 5% CO2 atmosphere. Primary EOC cells (R179, R182, R585) were isolated from malignant ovarian ascites and cultured as previously described (Kamsteeg et al., 2003). Dehydroequol and Compound 1 (Cpd 1) were obtained from Novogen (Australia). All other reagents were purchased from Sigma Chemical (St. Louis, Mo.). The pan caspase inhibitor Z-VAD-FMK was obtained from R&D Systems (Minneapolis, Minn.).
(§2) Cell viability was evaluated using the CellTiter 96 Aqueous One Solution Cell Proliferation Assay (Promega, Madison, Wis.) according to the manufacturer's instructions. The values from the treated cells were compared with the values generated from the untreated cells and reported as percent viability. Each experiment was performed in triplicate.

caspase 3 [3] = experiment: Caspase 3 activity in xenograft tumour sections; format: in vivo, SCID mice; settings: tumour-bearing mice; not shown
caspase 8 = experiment: Caspase-Glo 8 assay in R182 cells; format: cell-based, Human; settings: R182 ovarian cancer explants; dose response and duration of exposure (5 μg/ml, 0-25 hr)
Method: FIG. 4. Comparative induction of caspase 8 in R182 ovarian cancer explants by Cpd 1 and dehydroequol using either dose response (A) or duration of exposure (B). Caspase 8 activity was assessed using the Caspase-Glo 8 assay.
as §1

caspase 9 = experiment: Caspase-Glo 9 assay in R182 cells; format: cell-based, Human; settings: R182 ovarian cancer explants; dose response and duration of exposure (5 μg/ml, 0-25 hr)
Method: FIG. 3. Comparative induction of caspase 9 in R182 ovarian cancer explants by Cpd 1 and dehydroequol using either dose response (A) or duration of exposure (B). Caspase 9 activity was assessed using the Caspase-Glo 9 assay.
as §1

ovarian cancer cells = experiment: Cell viability in presence of pan caspase inhibitor ZVAD-FMK; format: cell-based, Human; settings: ZVAD-FMK 0.5 μg/ml
Method: FIG. 5. Comparative cell viability plots of dehydroequol (A) and Cpd 1 (B) treated cells in the presence and absence of the pan caspase inhibitor ZVAD-FMK (0.5 μg/ml).
as §2

Oc1ccc(C2=Cc3ccc(O)cc3OC2)cc1 [Dehydroequol, reference compound]
caspase 3 activity (caspase 3 [1]): activation of caspase 3 is time (5 μg/ml) and dose dependent
cell viability of ovarian cancer cells [2]: does not exhibit this pan activity
caspase 3 activity in tumour sections (caspase 3 [3]): observed only in tumour sections taken from mice dosed with dehydroequol
caspase 8 activity (caspase 8): activation of caspase 8 is time (5 μg/ml) and dose dependent
caspase 9 activity (caspase 9): activation of caspase 3 is time (5 μg/ml) and dose dependent
cell death in the presence of pan caspase inhibitor ZVAD-FMK (ovarian cancer cells): apoptosis was inhibited
